Data reported in patent US20040024024A1, “Aromatic sulfone hydroxamates and their use as protease inhibitors” (priority 2001, published 2004).
pIC50: −log10 of the molar value. Counter-ions that a name gives are not always drawn.

Columns and labels:
Assay in all cases: In vitro MMP inhibition, IC50 determination (fluorogenic substrate I)
Assay type in all cases: biochemical
Human recombinant MMP-9 = molecular target: T1, Human recombinant MMP-9 (Homo sapiens, UniProt P14780)
T1 construct: made in house; host or cells: MMP-9-transfected HT1080 cells (spent media)
Summary of the method: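 Reduction in fluorescence (328 nm excitation, 415 nm emission) from cleavage of 4 μM quenched peptide substrate I, measured at room temperature against inhibitor concentration, gave IC50. Enzyme: trypsin- or APMA-activated MMP-9 purified from transfected HT1080 medium; buffer 100 mM Tris, 100 mM NaCl, 10 mM CaCl2, pH 7.5.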

Human recombinant MMP-1 = molecular target: T2, Human recombinant MMP-1 (Homo sapiens, UniProt P03956)
T2 construct: made in house; host or cells: MMP-1-transfected HT-1080 cells (spent media)
T2 sequence (P03956 100-469): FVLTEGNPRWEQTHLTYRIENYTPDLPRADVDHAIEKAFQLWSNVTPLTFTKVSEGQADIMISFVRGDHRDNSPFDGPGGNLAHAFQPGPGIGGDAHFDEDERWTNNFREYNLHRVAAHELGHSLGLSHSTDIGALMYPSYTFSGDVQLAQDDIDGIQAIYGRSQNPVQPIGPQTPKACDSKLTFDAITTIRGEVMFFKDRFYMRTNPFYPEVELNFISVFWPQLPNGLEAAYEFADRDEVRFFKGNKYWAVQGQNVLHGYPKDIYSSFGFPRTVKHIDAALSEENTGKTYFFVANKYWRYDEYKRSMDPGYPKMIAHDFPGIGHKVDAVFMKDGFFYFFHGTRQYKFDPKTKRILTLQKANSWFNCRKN
Summary of the method: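 Inhibitor dilutions were made in 100 mM Tris-HCl/100 mM NaCl/10 mM CaCl2 buffer, pH 7.5, and incubated at room temperature with activated proenzyme (from transfected HT-1080 media; APMA or trypsin) and 4 μM quenched methoxycoumarin peptide substrate. Loss of 415 nm fluorescence (328 nm excitation) against concentration gave IC50.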

Human recombinant MMP-14 = molecular target: T3, Human recombinant MMP-14 (Homo sapiens, UniProt P50281)
T3 construct: The catalytic domain enzyme was expressed in E. coli inclusion bodies, solubilized in urea; made in house
Summary of the method: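 IC50 came from reduced fluorescence (ex 328 nm, em 415 nm) as inhibitor concentration rose, with 4 μM substrate I cleaved at Gly-Leu. Room-temperature incubation in pH 7.5 Tris buffer with 10 mM CaCl2; the E. coli-expressed, refolded MMP-14 catalytic domain was activated with trypsin or APMA.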

Human recombinant MMP-2 = molecular target: T4, Human recombinant MMP-2 (Homo sapiens, UniProt P08253)
T4 construct: made in house; host or cells: MMP-2-transfected p2AHT2 cells
T4 sequence (P08253 110-660): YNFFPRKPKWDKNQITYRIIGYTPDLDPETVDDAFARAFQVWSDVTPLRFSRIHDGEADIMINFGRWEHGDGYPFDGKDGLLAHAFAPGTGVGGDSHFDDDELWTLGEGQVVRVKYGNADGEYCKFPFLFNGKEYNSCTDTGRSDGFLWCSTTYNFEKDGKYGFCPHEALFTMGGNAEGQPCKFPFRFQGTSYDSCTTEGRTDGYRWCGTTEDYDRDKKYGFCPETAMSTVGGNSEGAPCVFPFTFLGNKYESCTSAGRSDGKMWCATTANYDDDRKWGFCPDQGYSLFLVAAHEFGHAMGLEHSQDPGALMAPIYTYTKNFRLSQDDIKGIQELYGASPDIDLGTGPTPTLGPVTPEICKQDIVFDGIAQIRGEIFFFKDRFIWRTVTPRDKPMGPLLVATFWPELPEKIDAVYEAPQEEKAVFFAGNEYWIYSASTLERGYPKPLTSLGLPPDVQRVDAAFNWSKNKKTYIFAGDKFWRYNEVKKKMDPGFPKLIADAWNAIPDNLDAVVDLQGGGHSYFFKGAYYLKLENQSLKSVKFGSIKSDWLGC
Summary of the method: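 IC50 was derived from the concentration-dependent fall in fluorescence (ex 328, em 415 nm) on Gly-Leu cleavage of 4 μM MCA/Dpa-quenched substrate I. Assays ran at room temperature in pH 7.5 Tris/NaCl/CaCl2/Brij buffer with MMP-2 activated by trypsin or APMA; inhibitors were diluted from 1% DMSO stocks.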

Human recombinant MMP-13 = molecular target: T5, Human recombinant MMP-13 (Homo sapiens, UniProt P45452)
T5 construct: made in house; host or cells: baculovirus / insect cells
Summary of the method: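 Fluorescence at 415 nm (excitation 328 nm) reports Gly-Leu cleavage of 4 μM quenched methoxycoumarin peptide substrate I. Human recombinant MMP-13, activated by trypsin or APMA, was incubated at room temperature with varied inhibitor concentrations in pH 7.5 Tris/NaCl/CaCl2 buffer; IC50 derived from reduced fluorescence.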

[1] = value outside parentheses (Ki in parenthesis)
[2] = substrate (I) 4 μM, room temperature, values not in parenthesis

T1 sequence (P14780 107-707 limits assumed): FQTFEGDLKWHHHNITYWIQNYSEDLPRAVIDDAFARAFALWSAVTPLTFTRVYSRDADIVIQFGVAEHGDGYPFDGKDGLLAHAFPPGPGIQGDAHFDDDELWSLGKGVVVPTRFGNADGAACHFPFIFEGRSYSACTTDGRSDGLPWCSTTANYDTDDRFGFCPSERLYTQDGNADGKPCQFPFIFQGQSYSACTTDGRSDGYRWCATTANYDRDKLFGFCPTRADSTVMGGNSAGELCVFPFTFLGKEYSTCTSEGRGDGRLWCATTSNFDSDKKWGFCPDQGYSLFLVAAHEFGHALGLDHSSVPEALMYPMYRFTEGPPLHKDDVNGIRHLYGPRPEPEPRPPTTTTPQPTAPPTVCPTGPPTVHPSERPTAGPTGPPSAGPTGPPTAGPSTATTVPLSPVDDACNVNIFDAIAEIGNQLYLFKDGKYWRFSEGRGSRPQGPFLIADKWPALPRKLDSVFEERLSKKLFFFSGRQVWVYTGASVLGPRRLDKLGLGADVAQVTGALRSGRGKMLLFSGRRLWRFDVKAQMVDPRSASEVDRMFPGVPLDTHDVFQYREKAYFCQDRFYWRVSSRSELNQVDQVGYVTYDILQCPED

Structure (SMILES)	pIC50 (Human recombinant MMP-9; [1])	pIC50 (Human recombinant MMP-1; [1])	pIC50 (Human recombinant MMP-14; [1])	pIC50 (Human recombinant MMP-2; [1])	pIC50 (Human recombinant MMP-13; [1])	pIC50 (Human recombinant MMP-9; value outside parenthesis)	pIC50 (Human recombinant MMP-1; value outside parenthesis)	pIC50 (Human recombinant MMP-14; value outside parenthesis)	pIC50 (Human recombinant MMP-2; value outside parenthesis)	pIC50 (Human recombinant MMP-13; value outside parenthesis)	also measured
C/C(=C\c1ccccc1)COc1ccc(S(=O)(=O)C2(C(=O)NO)CCOCC2)cc1 [Example 479]	7.85	5.57	5.70	8.40	8.52	–	–	–	–	–	–
Cc1cc(-c2nnc(CCCOc3ccc(S(=O)(=O)C4(C(=O)NO)CCOCC4)cc3)o2)ccc1OC(C)C [Example 294]	6.35	5.34	< 5.00	7.00	8.37	–	–	–	–	–	–
Cc1ccc(-c2nnc(CCCOc3ccc(S(=O)(=O)C4(C(=O)NO)CCOCC4)cc3)o2)cc1 [Example 259]	–	–	–	–	–	5.73	5.14	< 5.00	6.70	9.15	–
O=C(NO)C1(S(=O)(=O)c2ccc(OCCCc3nc(-c4ccc5c(c4)OCO5)no3)cc2)CCOCC1 [Example 215]	–	–	–	–	–	6.11	< 5.00	< 5.00	7.69	9.52	–
O=C(CCCOc1ccc(S(=O)(=O)C2(C(=O)NO)CCOCC2)cc1)NNC(=O)c1ccc(Cl)cc1 [Example 272]	–	–	–	–	–	6.82	6.40	< 5.00	8.38	8.55	–
CC(C)[C@H]1C(=O)N(CCCOc2ccc(S(=O)(=O)C3(C(=O)NO)CCOCC3)cc2)C(=O)N1c1ccccc1 [Example 134]	–	–	–	–	–	< 5.00	< 5.00	< 5.00	5.62	8.11	–
O=C(NO)C1(S(=O)(=O)c2ccc(OCCOCc3ccccc3)cc2)CCOCC1 [Example 653]	–	–	–	–	–	–	–	–	–	–	pIC50 (Human recombinant MMP-9; value outside parentheses): 7.31; pIC50 (Human recombinant MMP-1; value outside parentheses): 5.41; pIC50 (Human recombinant MMP-14; value outside parentheses): 5.60; pIC50 (Human recombinant MMP-2; value outside parentheses): 7.60; pIC50 (Human recombinant MMP-13; value outside parentheses): 8.25
O=C1CN(c2ccccc2Cl)C(=O)N1CCCOc1ccc(S(=O)(=O)C2(C(=O)NO)CCOCC2)cc1 [Example 224]	–	–	–	–	–	5.83	< 5.00	< 5.00	6.71	8.33	–
O=C(NCCSc1ccc(S(=O)(=O)C2(C(=O)NO)CCOCC2)cc1)c1nc2ccccc2o1 [Example 576]	–	–	–	–	–	–	–	–	–	–	pIC50 (Human recombinant MMP-9; value outside parentheses): 6.40; pIC50 (Human recombinant MMP-1; value outside parentheses): < 5.00; pIC50 (Human recombinant MMP-14; value outside parentheses): < 5.00; pIC50 (Human recombinant MMP-2; value outside parentheses): 6.63; pIC50 (Human recombinant MMP-13; value outside parentheses): 9.52
O=C(NO)C1(S(=O)(=O)c2ccc(OCCOCc3cccc([N+](=O)[O-])c3)cc2)CCOCC1 [Example 662]	–	–	–	–	–	–	–	–	–	–	pIC50 (Human recombinant MMP-9; value outside parentheses): 7.35; pIC50 (Human recombinant MMP-1; value outside parentheses): 5.64; pIC50 (Human recombinant MMP-14; value outside parentheses): 5.78; pIC50 (Human recombinant MMP-2; value outside parentheses): 8.15; pIC50 (Human recombinant MMP-13; value outside parentheses): 9.05
CCOc1ccccc1-c1noc(CCCOc2ccc(S(=O)(=O)C3(C(=O)NO)CCOCC3)cc2)n1 [Example 264]	–	–	–	–	–	6.54	< 5.00	< 5.00	6.79	8.28	–
O=C(NO)C1(S(=O)(=O)c2ccc(OCCCc3nc(-c4ccc([N+](=O)[O-])cc4)no3)cc2)CCOCC1 [Example 212]	–	–	–	–	–	6.67	5.85	< 5.00	8.39	9.52	–
O=C(CCCOc1ccc(S(=O)(=O)C2(C(=O)NO)CCOCC2)cc1)c1ccc(-c2ccccc2)cc1 [Example 356]	5.78	< 5.00	< 5.00	7.48	9.10	–	–	–	–	–	–
Cc1cc(C(=O)CCCCOc2ccc(S(=O)(=O)C3(C(=O)NO)CCN(C4CC4)CC3)cc2)ccc1OC(C)C [Example 254]	–	–	–	–	–	6.01	< 5.00	< 5.00	6.86	8.77	–
CN(C)c1ccc(NC(=O)CCCCOc2ccc(S(=O)(=O)C3(C(=O)NO)CCOCC3)cc2)cc1 [Example 20, 4-[[4-[[5-[[4-(dimethylamino)-phenyl]amino]-5-oxopentyl]oxy]phenyl]sulfonyl]tetrahydro-N-hydroxy-2H-pyran-4-carboxamide, Monohydrochloride]	–	–	–	–	–	–	–	–	–	–	pIC50 (Human recombinant MMP-9; [2]): 6.30; pIC50 (Human recombinant MMP-1; [2]): < 5.00; pIC50 (Human recombinant MMP-14; [2]): < 5.00; pIC50 (Human recombinant MMP-2; [2]): 8.74; pIC50 (Human recombinant MMP-13; [2]): 8.74
COc1ccc(C(=O)CCOc2ccc(S(=O)(=O)C3(C(=O)NO)CCOCC3)cc2)cc1 [Example 494]	–	–	–	–	–	–	–	–	–	–	pIC50 (Human recombinant MMP-9; value outside parentheses): 7.87; pIC50 (Human recombinant MMP-1; value outside parentheses): 5.82; pIC50 (Human recombinant MMP-14; value outside parentheses): 6.71; pIC50 (Human recombinant MMP-2; value outside parentheses): > 10.00; pIC50 (Human recombinant MMP-13; value outside parentheses): > 10.00
O=C1c2ccccc2C(=O)N1CCCCc1ccc(S(=O)(=O)C2(C(=O)NO)CCOCC2)cc1 [Example 35]	–	–	–	–	–	–	–	–	–	–	pIC50 (Human recombinant MMP-9; [2]): < 5.00; pIC50 (Human recombinant MMP-1; [2]): < 5.00; pIC50 (Human recombinant MMP-14; [2]): < 5.00; pIC50 (Human recombinant MMP-2; [2]): 6.22; pIC50 (Human recombinant MMP-13; [2]): 8.52
O=C(NO)C1(S(=O)(=O)c2ccc(OCCOc3ccccc3)cc2)CCOCC1 [Example 667]	–	–	–	–	–	–	–	–	–	–	pIC50 (Human recombinant MMP-9; value outside parentheses): 7.47; pIC50 (Human recombinant MMP-1; value outside parentheses): < 5.00; pIC50 (Human recombinant MMP-14; value outside parentheses): 5.60; pIC50 (Human recombinant MMP-2; value outside parentheses): 7.56; pIC50 (Human recombinant MMP-13; value outside parentheses): 8.03
O=C(NO)C1(S(=O)(=O)c2ccc(OCCCc3nc(-c4ccc(F)cc4)no3)cc2)CCOCC1 [Example 240]	–	–	–	–	–	5.85	< 5.00	< 5.00	7.08	9.15	–
COc1ccc(C(=O)CCCCOc2ccc(S(=O)(=O)C3(C(=O)NO)CCN(C4CC4)CC3)cc2)cc1 [Example 277]	–	–	–	–	–	7.38	< 5.00	< 5.00	8.46	9.70	–
O=C(NO)C1(S(=O)(=O)c2ccc(OCCCc3nc(-c4ccc(Cl)cc4)no3)cc2)CCOCC1 [Example 243]	–	–	–	–	–	5.68	5.03	< 5.00	7.31	9.30	–
COc1cc2c(cc1OC)C(C)N(C(=O)OCCCCOc1ccc(S(=O)(=O)C3(C(=O)NO)CCOCC3)cc1)CC2 (centres unmarked) [Example 335]	6.76	< 5.00	< 5.00	8.64	8.19	–	–	–	–	–	–

Continued, in another order:

pIC50 (Human recombinant MMP-9; [1])	pIC50 (Human recombinant MMP-1; [1])	pIC50 (Human recombinant MMP-14; [1])	pIC50 (Human recombinant MMP-2; [1])	pIC50 (Human recombinant MMP-13; [1])	pIC50 (Human recombinant MMP-9; value outside parenthesis)	pIC50 (Human recombinant MMP-1; value outside parenthesis)	pIC50 (Human recombinant MMP-14; value outside parenthesis)	pIC50 (Human recombinant MMP-2; value outside parenthesis)	pIC50 (Human recombinant MMP-13; value outside parenthesis)	Structure (SMILES)	also measured
6.57	5.48	5.57	8.59	9.30	–	–	–	–	–	O=C(CCCOc1ccc(S(=O)(=O)C2(C(=O)NO)CCOCC2)cc1)Nc1ccccc1O [Example 350]	–
5.44	< 5.00	5.20	7.47	8.70	–	–	–	–	–	O=C(CCCOc1ccc(S(=O)(=O)C2(C(=O)NO)CCOCC2)cc1)c1cccc2ccccc12 [Example 352]	–
6.35	5.21	< 5.00	8.64	8.59	–	–	–	–	–	O=C(NO)C1(S(=O)(=O)c2ccc(OCCCS(=O)(=O)C3CCCCC3)cc2)CCOCC1 [Example 293]	–
< 5.00	< 5.00	< 5.00	6.34	8.28	–	–	–	–	–	CCCC(C)C(=O)NCCCOc1ccc(S(=O)(=O)C2(C(=O)NO)CCOCC2)cc1 (centres unmarked) [Example 403]	–
6.74	< 5.00	5.74	8.40	9.52	–	–	–	–	–	COc1ccc(CCCOc2ccc(S(=O)(=O)C3(C(=O)NO)CCOCC3)cc2)cc1 [Example 465]	–
7.45	< 5.00	5.01	6.88	8.92	–	–	–	–	–	Cc1cc(C(=O)NCCCOc2ccc(S(=O)(=O)C3(C(=O)NO)CCOCC3)cc2)no1 [Example 386]	–
